# Data: patent US9738634B2, “Heterocyclic amide compound and herbicide” (SYNGENTA PARTICIPATIONS AG, priority 2013, dated 2017)
# Key:
# Assay type in all cases: in vivo
# Conditions in all cases: treatment dosage 320 g/ha
# barnyard grass [1] = assay: Test Example 1: weedkilling efficacy, preemergent weed treatment in the submerged state; A: barnyard grass
# How it was run: (§1)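 Pre-emergence application onto floodwater (4 cm, alluvial soil) on the day of sowing, dose expressed as g/ha from diluted emulsion formulation. Weeds sown with 2.5-leaf transplanted rice as crop; plants held at 25–30 °C in greenhouse and scored against assessment criteria after 3 weeks.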
# bulrush [2] = assay: Test Example 1: weedkilling efficacy, preemergent weed treatment in the submerged state; B: bulrush
# How it was run: as §1
# oval-leafed pondweed [3] = assay: Test Example 1: weedkilling efficacy, preemergent weed treatment in the submerged state; C: oval-leafed pondweed
# How it was run: as §1
# transplanted rice = assay: Test Example 1: preemergent weed treatment in the submerged state, effect on crop; a: transplanted rice
# How it was run: as §1
# barnyard grass [4] = assay: Test Example 2: weedkilling efficacy, growth period weed treatment in the submerged state; A: barnyard grass
# How it was run: (§2)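 Weeds treated at the 1-2 leaf stage by application of diluted emulsion onto floodwater (4 cm depth, alluvial soil) at specified g/ha. Grown in greenhouse at 25 to 30° C; herbicidal effect rated three weeks after treatment.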
# bulrush [5] = assay: Test Example 2: weedkilling efficacy, growth period weed treatment in the submerged state; B: bulrush
# How it was run: as §2
# oval-leafed pondweed [6] = assay: Test Example 2: weedkilling efficacy, growth period weed treatment in the submerged state; C: oval-leafed pondweed
# How it was run: as §2
# crabgrass [7] = assay: Test Example 3: weedkilling efficacy through soil treatment; D: crabgrass
# How it was run: (§3)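 Crop and weed responses were judged three weeks after a uniform surface spray of the water-diluted emulsion at the given g/ha rate. Seeds sat beneath about 1.5 cm of sterilized diluvial soil, and boxes stood in a greenhouse at 25 to 30° C.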
# green foxtail [8] = assay: Test Example 3: weedkilling efficacy through soil treatment; E: green foxtail
# How it was run: as §3
# barnyard grass [9] = assay: Test Example 3: weedkilling efficacy through soil treatment; F: barnyard grass
# How it was run: as §3
# wild oat [10] = assay: Test Example 3: weedkilling efficacy through soil treatment; G: wild oat
# How it was run: as §3
# black-grass [11] = assay: Test Example 3: weedkilling efficacy through soil treatment; H: black-grass
# How it was run: as §3
# Italian ryegrass [12] = assay: Test Example 3: weedkilling efficacy through soil treatment; I: Italian ryegrass
# How it was run: as §3
# common wind-grass [13] = assay: Test Example 3: weedkilling efficacy through soil treatment; J: common wind-grass
# How it was run: as §3
# Indian mallow [14] = assay: Test Example 3: weedkilling efficacy through soil treatment; K: Indian mallow
# How it was run: as §3
# redroot pigweed [15] = assay: Test Example 3: weedkilling efficacy through soil treatment; L: redroot pigweed
# How it was run: as §3
# fig-leafed goosefoot [16] = assay: Test Example 3: weedkilling efficacy through soil treatment; M: fig-leafed goosefoot
# How it was run: as §3
# chickweed [17] = assay: Test Example 3: weedkilling efficacy through soil treatment; N: chickweed
# How it was run: as §3
# catchweed [18] = assay: Test Example 3: weedkilling efficacy through soil treatment; O: catchweed
# How it was run: as §3
# birds-eye speedwell = assay: Test Example 3: weedkilling efficacy through soil treatment; p: birds-eye speedwell
# How it was run: as §3
# directly sown rice [19] = assay: Test Example 3: soil treatment, effect on crop; b: directly sown rice
# How it was run: as §3
# corn [20] = assay: Test Example 3: soil treatment, effect on crop; c: corn
# How it was run: as §3
# soybean [21] = assay: Test Example 3: soil treatment, effect on crop; d: soybean
# How it was run: as §3
# wheat [22] = assay: Test Example 3: soil treatment, effect on crop; e: wheat
# How it was run: as §3
# beet [23] = assay: Test Example 3: soil treatment, effect on crop; f: beet
# How it was run: as §3
# rapeseed [24] = assay: Test Example 3: soil treatment, effect on crop; g: rapeseed
# How it was run: as §3
# crabgrass [25] = assay: Test Example 4: weedkilling efficacy by foliar treatment; D: crabgrass
# How it was run: (§4)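 Seeds are spot-sown into sterilized diluvial soil and covered with about 1.5 cm of soil. After 14 days' greenhouse growth at 25 to 30° C, plants are sprayed on stems and leaves with diluted emulsion at the stated g/ha rate, then scored at 3 weeks.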
# green foxtail [26] = assay: Test Example 4: weedkilling efficacy by foliar treatment; E: green foxtail
# How it was run: as §4
# barnyard grass [27] = assay: Test Example 4: weedkilling efficacy by foliar treatment; F: barnyard grass
# How it was run: as §4
# wild oat [28] = assay: Test Example 4: weedkilling efficacy by foliar treatment; G: wild oat
# How it was run: as §4
# black-grass [29] = assay: Test Example 4: weedkilling efficacy by foliar treatment; H: black-grass
# How it was run: as §4
# Italian ryegrass [30] = assay: Test Example 4: weedkilling efficacy by foliar treatment; I: Italian ryegrass
# How it was run: as §4
# common wind-grass [31] = assay: Test Example 4: weedkilling efficacy by foliar treatment; J: common wind-grass
# How it was run: as §4
# Indian mallow [32] = assay: Test Example 4: weedkilling efficacy by foliar treatment; K: Indian mallow
# How it was run: as §4
# redroot pigweed [33] = assay: Test Example 4: weedkilling efficacy by foliar treatment; L: redroot pigweed
# How it was run: as §4
# fig-leafed goosefoot [34] = assay: Test Example 4: weedkilling efficacy by foliar treatment; M: fig-leafed goosefoot
# How it was run: as §4
# chickweed [35] = assay: Test Example 4: weedkilling efficacy by foliar treatment; N: chickweed
# How it was run: as §4
# catchweed [36] = assay: Test Example 4: weedkilling efficacy by foliar treatment; O: catchweed
# How it was run: as §4
# directly sown rice [37] = assay: Test Example 4: foliar treatment, effect on crop; b: directly sown rice
# How it was run: as §4
# corn [38] = assay: Test Example 4: foliar treatment, effect on crop; c: corn
# How it was run: as §4
# soybean [39] = assay: Test Example 4: foliar treatment, effect on crop; d: soybean
# How it was run: as §4
# wheat [40] = assay: Test Example 4: foliar treatment, effect on crop; e: wheat
# How it was run: as §4
# beet [41] = assay: Test Example 4: foliar treatment, effect on crop; f: beet
# How it was run: as §4
# rapeseed [42] = assay: Test Example 4: foliar treatment, effect on crop; g: rapeseed
# How it was run: as §4
structure (smiles),measurement,setting,value
CC1=C(c2ccccc2)C(=O)N(C(C)(C)C(=O)Nc2ccc(F)cn2)CO1 [B-2-26],A (barnyard grass) weedkilling efficacy grade,barnyard grass [1],"5 (weed kill ratio 90% or more, (practically complete withering))"
same,B (bulrush) weedkilling efficacy grade,bulrush [2],"5 (weed kill ratio 90% or more, (practically complete withering))"
same,C (oval-leafed pondweed) weedkilling efficacy grade,oval-leafed pondweed [3],"5 (weed kill ratio 90% or more, (practically complete withering))"
same,a (transplanted rice) effect on crop grade,transplanted rice,0 (weed kill ratio 5% or less (practically no effect))
same,A (barnyard grass) weedkilling efficacy grade,barnyard grass [4],"5 (weed kill ratio 90% or more, (practically complete withering))"
same,B (bulrush) weedkilling efficacy grade,bulrush [5],"5 (weed kill ratio 90% or more, (practically complete withering))"
same,C (oval-leafed pondweed) weedkilling efficacy grade,oval-leafed pondweed [6],"5 (weed kill ratio 90% or more, (practically complete withering))"
same,D (crabgrass) weedkilling efficacy grade,crabgrass [7],"5 (weed kill ratio 90% or more, (practically complete withering))"
same,E (green foxtail) weedkilling efficacy grade,green foxtail [8],"5 (weed kill ratio 90% or more, (practically complete withering))"
same,F (barnyard grass) weedkilling efficacy grade,barnyard grass [9],"5 (weed kill ratio 90% or more, (practically complete withering))"
same,G (wild oat) weedkilling efficacy grade,wild oat [10],"1 (weed kill ratio 5% or more, less than 20%)"
same,H (black-grass) weedkilling efficacy grade,black-grass [11],"5 (weed kill ratio 90% or more, (practically complete withering))"
same,I (Italian ryegrass) weedkilling efficacy grade,Italian ryegrass [12],"5 (weed kill ratio 90% or more, (practically complete withering))"
same,J (common wind-grass) weedkilling efficacy grade,common wind-grass [13],"5 (weed kill ratio 90% or more, (practically complete withering))"
same,K (Indian mallow) weedkilling efficacy grade,Indian mallow [14],0 (weed kill ratio 5% or less (practically no effect))
same,L (redroot pigweed) weedkilling efficacy grade,redroot pigweed [15],"4 (weed kill ratio 70% or more, less than 90%)"
same,M (fig-leafed goosefoot) weedkilling efficacy grade,fig-leafed goosefoot [16],"4 (weed kill ratio 70% or more, less than 90%)"
same,N (chickweed) weedkilling efficacy grade,chickweed [17],"3 (weed kill ratio 40% or more, less than 70%)"
same,O (catchweed) weedkilling efficacy grade,catchweed [18],"2 (weed kill ratio 20% or more, less than 40%)"
same,P (birds-eye speedwell) weedkilling efficacy grade,birds-eye speedwell,0 (weed kill ratio 5% or less (practically no effect))
same,b (directly sown rice) effect on crop grade,directly sown rice [19],"2 (weed kill ratio 20% or more, less than 40%)"
same,c (corn) effect on crop grade,corn [20],0 (weed kill ratio 5% or less (practically no effect))
same,d (soybean) effect on crop grade,soybean [21],0 (weed kill ratio 5% or less (practically no effect))
same,e (wheat) effect on crop grade,wheat [22],0 (weed kill ratio 5% or less (practically no effect))
same,f (beet) effect on crop grade,beet [23],0 (weed kill ratio 5% or less (practically no effect))
same,g (rapeseed) effect on crop grade,rapeseed [24],0 (weed kill ratio 5% or less (practically no effect))
same,D (crabgrass) weedkilling efficacy grade,crabgrass [25],"3 (weed kill ratio 40% or more, less than 70%)"
same,E (green foxtail) weedkilling efficacy grade,green foxtail [26],"4 (weed kill ratio 70% or more, less than 90%)"
same,F (barnyard grass) weedkilling efficacy grade,barnyard grass [27],"3 (weed kill ratio 40% or more, less than 70%)"
same,G (wild oat) weedkilling efficacy grade,wild oat [28],"3 (weed kill ratio 40% or more, less than 70%)"
same,H (black-grass) weedkilling efficacy grade,black-grass [29],"4 (weed kill ratio 70% or more, less than 90%)"
same,I (Italian ryegrass) weedkilling efficacy grade,Italian ryegrass [30],"3 (weed kill ratio 40% or more, less than 70%)"
same,J (common wind-grass) weedkilling efficacy grade,common wind-grass [31],"5 (weed kill ratio 90% or more, (practically complete withering))"
same,K (Indian mallow) weedkilling efficacy grade,Indian mallow [32],"3 (weed kill ratio 40% or more, less than 70%)"
same,L (redroot pigweed) weedkilling efficacy grade,redroot pigweed [33],"4 (weed kill ratio 70% or more, less than 90%)"
same,M (fig-leafed goosefoot) weedkilling efficacy grade,fig-leafed goosefoot [34],"4 (weed kill ratio 70% or more, less than 90%)"
same,N (chickweed) weedkilling efficacy grade,chickweed [35],"3 (weed kill ratio 40% or more, less than 70%)"
same,O (catchweed) weedkilling efficacy grade,catchweed [36],"3 (weed kill ratio 40% or more, less than 70%)"
same,b (directly sown rice) effect on crop grade,directly sown rice [37],"1 (weed kill ratio 5% or more, less than 20%)"
same,c (corn) effect on crop grade,corn [38],"3 (weed kill ratio 40% or more, less than 70%)"
same,d (soybean) effect on crop grade,soybean [39],"4 (weed kill ratio 70% or more, less than 90%)"
same,e (wheat) effect on crop grade,wheat [40],0 (weed kill ratio 5% or less (practically no effect))
same,f (beet) effect on crop grade,beet [41],"4 (weed kill ratio 70% or more, less than 90%)"
same,g (rapeseed) effect on crop grade,rapeseed [42],"1 (weed kill ratio 5% or more, less than 20%)"
